Structures are written as SMILES.

The target in the first experiment is T1, M. abscessus DHFR (recombinant) (Mycobacteroides abscessus, UniProt B1MD46).
T1 construct: gene MAB_3090c; E. coli codon-optimised gene in pET28a (NcoI/XhoI), N-terminal His6-tag, expressed in E. coli BL21(DE3), Ni-NTA purified; tag removal not mentioned
T1 sequence (B1MD46 1-163): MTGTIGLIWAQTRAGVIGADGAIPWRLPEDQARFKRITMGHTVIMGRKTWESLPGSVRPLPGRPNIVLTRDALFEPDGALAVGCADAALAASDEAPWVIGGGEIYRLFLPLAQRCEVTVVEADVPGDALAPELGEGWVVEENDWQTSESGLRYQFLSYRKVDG
Briefly: NADPH absorbance decrease at […] nm (DHFR kit CS0340). Format: biochemical. Particulars: read-out: IC50 (μM) ^ b.
For orientation: IC50 means the concentration needed to halve the response being measured. In the case of `COc1cc(Cc2cnc(N)nc2N)cc(OC)c1Br` [Brodimoprim], the IC50 was found to be 1.7 µM.

As for `COc1cc(Cc2cnc(N)nc2N)c2c(c1OC)OC(C1CC1)C=C2` (stereo not shown) [Iclaprim], the IC50 was 0.6 µM.

For `CN(Cc1cnc2nc(N)nc(N)c2n1)c1ccc(C(=O)N[C@@H](CCC(=O)O)C(=O)O)cc1` [Methotrexate], the IC50 was determined as 0.016 µM.

`N#Cc1ccc(Cn2ccc3c4c(N)nc(N)nc4ccc32)cc1` [PQD-1]: the IC50 was determined as 0.0025 µM.

Turning to `C#CCC(Cc1cnc2nc(N)nc(N)c2n1)c1ccc(C(=O)N[C@@H](CCC(=O)O)C(=O)O)cc1` (stereo partly shown) [Pralatrexate], the IC50 was found to be 0.21 µM.

Turning to `CCc1nc(N)nc(N)c1-c1ccc(Cl)cc1` [Pyrimethamine], the IC50 stood at 4.7 µM.

As for `COCCOc1c(OC)cc(Cc2cnc(N)nc2N)cc1OC` [Tetroxoprim], the IC50 came to 20 µM.

Take `COc1cc(Cc2cnc(N)nc2N)cc(OC)c1OC` [Trimethoprim]: the IC50 was 25 µM.

`COc1cc(NCc2ccc3nc(N)nc(N)c3c2C)cc(OC)c1OC` [Trimetrexate]: the IC50 is 0.005 µM.

For `CC1(C)N=C(N)N=C(N)N1OCCCOc1cc(Cl)c(Cl)cc1Cl` [WR99210], the IC50 is 0.016 µM.

The experiment is the same for the next values; noted with them: read-out: IC50 ^ b.
For the molecule `N#Cc1cccc(Cn2ccc3c4c(N)nc(N)nc4ccc32)c1` [PQD-2], the IC50 was 0.0034 µM.

As for `COC(=O)c1ccc(Cn2ccc3c4c(N)nc(N)nc4ccc32)cc1` [PQD-3], the IC50 was 0.015 µM.

Regarding `Cc1cccc(Cn2ccc3c4c(N)nc(N)nc4ccc32)n1` [PQD-4], the IC50 turned out to be 0.015 µM.

For the molecule `N#Cc1ccccc1Cn1ccc2c3c(N)nc(N)nc3ccc21` [PQD-5], the IC50 amounted to 0.016 µM.

Take `Cc1ccccc1Cn1ccc2c3c(N)nc(N)nc3ccc21` [PQD-6]: the IC50 stood at 0.015 µM.

Turning to `Nc1nc(N)c2c(ccc3c2ccn3Cc2ccc3ccccc3c2)n1` [PQD-7], the 50% inhibitory concentration (IC50) came out at 0.015 µM.

Regarding `Nc1nc(N)c2c(ccc3c2ccn3Cc2ccc(F)cc2)n1` [PQD-8], the IC50 turned out to be 0.02 µM.

For `Nc1nc(N)c2c(ccc3c2ccn3Cc2cccc(Cl)c2)n1` [PQD-9], the IC50 is 0.03 µM.

`CC(C)Nc1nc(N)c2c(ccc3c2ccn3Cc2ccc(C(C)C)cc2)n1` [PQD-10]: the IC50 was 4.1 µM.
